One may read the kinetic solubility as solubility judged after dilution from a stock solution rather than from solid.

Converted amounts (≈) assume the structure as drawn.

For the data set the following is noted: buffer; pH 7.4; 200.0 µM.
For `COc1ccccc1OCC(=O)NC1CC(C)(C)NC(C)(C)C1`, the kinetic solubility was determined as 41.7 µg/mL (≈ 130 µM). `O=C(NCc1ccccn1)Nc1cccc(F)c1`: the solubility (kinetic) turned out to be 35.9 µg/mL (≈ 146 µM). Under `Cc1ccc(C(=O)N2CCN(c3ccccn3)CC2)cc1C` stands above 44.3 µg/mL. Under `Cc1cccc(OCCn2ccnc2)c1` stands 20.9 µg/mL (≈ 103 µM); under `CCNC(=O)COc1ccc(OCc2ccccc2)cc1`, 29.1 µg/mL (≈ 102 µM).

Regarding `COc1ccc(C/C(N)=N/OC(=O)c2ccc(Cl)cc2)cc1`, the kinetic solubility came out at 0.6 µg/mL (≈ 1.88 µM). As for `O=C(Nc1ccccc1)c1c2c(nc3ccccc13)CCCC2`, the kinetic solubility turned out to be 0.5 µg/mL (≈ 1.65 µM).

Compound `Cc1cc(SC(C)C(=O)O)nc2ccccc12` (stereo not drawn) came in with a kinetic solubility above 37.1 µg/mL. Under `CC(=O)Nc1ccc(NC2=CC(=O)c3ccccc3C2=O)cc1` stands 1.1 µg/mL (≈ 3.59 µM); under `N#Cc1c(N)n(-c2ccccc2N)c2nc3ccccc3nc12`, 5.4 µg/mL (≈ 18 µM); under `COc1ccc(C(=O)O)cc1S(=O)(=O)Nc1ccc(C)cc1`, above 48.2 µg/mL. With `O=C(Cc1ccccc1)NCC1OCCc2ccccc21` (stereo not drawn), the solubility (kinetic) worked out at 30.9 µg/mL (≈ 110 µM). As for `O=C(O)c1ccc2c(c1)C(=O)N(c1ccccc1-c1ccccc1)C2=O`, the solubility (kinetic) is above 51.5 µg/mL.

On to `COC(=O)C(NC(=O)c1ccccc1C(=O)O)c1ccc2ccccc2c1` (stereo not drawn), for which the solubility (kinetic) is above 54.5 µg/mL. The result for `Cc1ccccc1N1CCN(CC(=O)Nc2nccs2)CC1` reads 44.2 µg/mL (≈ 140 µM); that for `CCc1nnc(NC(=O)CN2CC(C)OC(C)C2)s1` (stereo not drawn), above 42.7 µg/mL. On to `C1CCCN(C2CCNCC2)CC1.Cl`, for which the kinetic solubility was above 38.3 µg/mL. `CCOC(=O)C1CCCN(C(=S)NC2CCCCC2)C1` (stereo not drawn): the kinetic solubility was above 44.8 µg/mL.

`Cc1c(C(=O)CN2CCN(c3ccccc3)CC2)c2ccccc2n1C` showed a kinetic solubility of 39.6 µg/mL (≈ 114 µM).

`Cc1cc(C)cc(NC(=O)c2cc(C)nc3ccccc23)c1` displayed a solubility (kinetic) below 0.3 µg/mL.

In turn, `Cc1c(C(=O)O)oc2ccc(S(=O)(=O)N3CCCC3)cc12` came in with a kinetic solubility above 46.4 µg/mL. The result for `COc1ccc(NS(=O)(=O)c2ccc(C(=O)N3CCN(c4ccc(F)cc4)CC3)cc2)cc1` reads 12.1 µg/mL (≈ 25.8 µM). Under `CC1CN(CC(=O)Nc2nc3ccccc3s2)CC(C)O1` (stereo not drawn) stands 39 µg/mL (≈ 128 µM). In turn, `CC(=O)c1cc(C(C)=O)c(C)[n+](C)c1C.[O-][Cl+3]([O-])([O-])[O-]` had a solubility (kinetic) of 41.5 µg/mL.

In turn, `COc1ccc(C(=O)Nc2ccc(NC(=O)c3ccccc3F)cn2)cc1` showed a solubility (kinetic) of 1 µg/mL (≈ 2.74 µM). For the compound `Cc1cccc(Nc2nnc(SCC(=O)NCC3CCCO3)s2)c1` (stereo not drawn), the solubility (kinetic) was above 54.7 µg/mL. The result for `CC(=O)N1CCN(S(=O)(=O)c2ccc(C)cc2)C1C` (stereo not drawn) reads above 42.4 µg/mL; that for `CN(CC(=O)NCCN1CCOCC1)S(=O)(=O)c1ccc(Cl)cc1`, above 56.4 µg/mL; that for `CC(C)n1c(CN2CCN(Cc3ccccc3)CC2)nc2ccccc21`, 34.8 µg/mL (≈ 99.9 µM). In turn, `Cc1ccc(SCC(=O)NCCc2ccccc2)cc1` returned a solubility (kinetic) of 20.7 µg/mL (≈ 72.5 µM). `CN(Cc1ccccc1)C(=O)c1cccnc1` came in with a solubility (kinetic) above 33.9 µg/mL. Under `CCc1ccc2nc(SCC(=O)NCC3CCCO3)c(C#N)cc2c1` (stereo not drawn) stands 1.9 µg/mL (≈ 5.35 µM); under `O=C(O)c1ccc(N2C(=O)CSC2c2cccc([N+](=O)[O-])c2)cc1` (stereo not drawn), above 51.7 µg/mL.

Regarding `O=C(NC1CCSc2ccccc21)c1ccc(F)cc1` (stereo not drawn), the solubility (kinetic) stood at 4.9 µg/mL (≈ 17.1 µM). Under `CCc1cccc(CC)c1-n1c(SCC(=O)N2CCc3ccccc32)nc(O)cc1=O` stands 60 µg/mL (≈ 138 µM); under `CCN(CC)CC(=O)N1c2ccccc2Sc2ccccc21`, above 46.9 µg/mL; under `CNC(=O)COc1ccc(S(=O)(=O)N2CCCC2)cc1`, 40.9 µg/mL (≈ 137 µM). `COc1ccc(C(=O)OCC(=O)N2CCCC2=O)c(OC)c1` displayed a kinetic solubility of 40.3 µg/mL (≈ 131 µM). Under `CC1(C)Oc2ccc(C(=O)NC3CCCCC3)cc2N(CC#N)C1=O` stands 12.9 µg/mL (≈ 37.8 µM); under `O=C(OCC(=O)N1CCCC1=O)C1COc2ccccc2O1` (stereo not drawn), above 45.8 µg/mL; under `Cc1cc(C)cc(NS(=O)(=O)c2csc(C(N)=O)c2)c1`, above 46.6 µg/mL.

In the case of `O=C(COC(=O)c1ccccc1O)NCCc1c[nH]c2ccccc12`, the solubility (kinetic) stood at 7.8 µg/mL (≈ 23.1 µM). Turning to `COCc1cc(C)nc(SCc2ccc(Cl)cc2)c1C#N`, the kinetic solubility was found to be 0.8 µg/mL (≈ 2.51 µM). The result for `Cc1ccc(C(=O)OCc2cc(=O)n3ccsc3n2)s1` reads 6.8 µg/mL (≈ 22.2 µM). `CCOC(=O)NC(=O)c1cn(-c2ccc(OC)cc2)c(=O)[nH]c1=O` gave a kinetic solubility of 9.1 µg/mL (≈ 27.3 µM). The solubility kinetic values of the last two compounds are within 1.5-fold of each other. The result for `CCNC(=S)Nc1cccc(NC(=O)c2ccccc2O)c1` reads 42 µg/mL (≈ 133 µM); that for `NC(=O)c1ccc(NC(=O)COC(=O)C2CC3C=CC2C3)cc1` (stereo not drawn), above 47.2 µg/mL. As to `COc1ccc(CC(=S)NCCc2ccccc2)cc1`, the solubility (kinetic) worked out at 13 µg/mL (≈ 45.5 µM). For the compound `COC(=O)c1ccccc1NC(=O)CSc1ncccn1`, the solubility (kinetic) is above 45.5 µg/mL. Take `Cc1ccc(-c2cc(C(=O)NCC(c3ccccc3)N(C)C)c3ccccc3n2)o1` (stereo not drawn): the solubility (kinetic) worked out at 31.1 µg/mL (≈ 77.8 µM). On to `O=C(CNC(=O)c1ccc(Br)o1)NCc1ccc(F)cc1`, for which the solubility (kinetic) is above 53.3 µg/mL. The result for `COc1ccc(C(=O)NC(=S)N2CCCC2)cc1` reads above 39.7 µg/mL; that for `Clc1cc(-c2ccccc2)nc(-c2ccccc2)n1`, below 0.3 µg/mL. The result for `Cc1cc(C(=O)NCc2nc(-c3ccccc3)no2)ccc1[N+](=O)[O-]` reads 18.9 µg/mL (≈ 55.9 µM). Regarding `O=C(COC(=O)c1cccc(N2C(=O)C3CC=CCC3C2=O)c1)c1ccccc1` (stereo not drawn), the kinetic solubility came out at 3.2 µg/mL (≈ 8.22 µM). Under `NC(=O)c1ccccc1NC(=O)Cc1cccs1` stands 38.3 µg/mL (≈ 147 µM); under `COc1ccc(-c2noc(CN(C)C3CCOCC3)n2)cc1`, above 45.5 µg/mL.

The compound `Cc1ccc(OC(=O)CCC(=O)Nc2ccc(C(N)=O)cc2)cc1` returned a kinetic solubility above 49 µg/mL. Compound `CC(C)C(OC(=O)c1nsc(Cl)c1Cl)C(=O)NCc1ccccc1` (stereo not drawn) gave a solubility (kinetic) of 10 µg/mL (≈ 25.8 µM).

The compound `O=C1N=C(N2CCOCC2)S/C1=C\c1cccs1` came in with a kinetic solubility above 42.1 µg/mL. The result for `COc1ccccc1NC(=O)c1cc([N+](=O)[O-])ccc1N1CCOCC1` reads 31.2 µg/mL (≈ 87.3 µM); that for `O=C(COc1ccccc1)NS(=O)(=O)c1ccc(Cl)cc1`, above 48.9 µg/mL; that for `Cc1ccc(Cl)c(OCCN2CCc3ccccc3C2)c1.Cl`, 4.4 µg/mL. `S=C(NCc1ccc(Cl)cc1)N1CCN(c2ccccn2)CC1` displayed a kinetic solubility below 0.2 µg/mL. With `CN(CC(=O)OCC(N)=O)S(=O)(=O)c1ccc(Cl)cc1`, the solubility (kinetic) is above 48.1 µg/mL.

For the compound `CSCCC(NC(=O)c1ccco1)c1nc2ccccc2[nH]1` (stereo not drawn), the solubility (kinetic) is above 47.3 µg/mL.

Regarding `COC(=O)CN(C#N)c1nc(NCc2ccccc2)nc(OC)n1`, the kinetic solubility is above 49.2 µg/mL.

Turning to `CC(=O)N=c1scc(-c2ccccc2)n1-c1cccc(O)c1`, the solubility (kinetic) was determined as 2.6 µg/mL (≈ 8.38 µM). As for `Cc1csc(SCC(=O)Nc2ccccc2C)n1`, the solubility (kinetic) is above 41.8 µg/mL. The result for `N#CC(=NCc1cccnc1)C1=C(O)c2ccccc2C1=O` reads 6.4 µg/mL (≈ 22.1 µM); that for `Cc1cccc2nc3c(nc12)CCCC3`, 6.4 µg/mL (≈ 32.3 µM); that for `Cc1ccc(C)c(C(C)NC(=O)C2CCCC2)c1` (stereo not drawn), 33.2 µg/mL (≈ 135 µM). Under `CC(NC(=O)NC(=O)c1ccc(F)cc1)C1CC1` (stereo not drawn) stands 16.2 µg/mL (≈ 64.7 µM); under `CCCc1nnc(SCC(=O)NC2CCCCC2)n1CCOC`, above 51.1 µg/mL; under `Cc1cc(=O)oc2cc(OCC(=O)N3CC[C@@]4(O)CCCC[C@H]4C3)ccc12`, above 55.7 µg/mL. The result for `O=C(NC1CCCCCC1)c1cccc(S(=O)(=O)N2CCOCC2)c1` reads 6.5 µg/mL (≈ 17.7 µM); that for `NC(=O)c1cccc(-c2cccc(OC(=O)NC3CCCCC3)c2)c1`, below 0.4 µg/mL. In the case of `CN(CCN(C)C(C)(C)C)C(=O)C(c1ccccc1)c1ccccc1`, the solubility (kinetic) came out at 48 µg/mL (≈ 142 µM). The result for `Cc1ccc(C23CC4CC(CC(C(=O)NC(C)C(=O)O)(C4)C2)C3)cc1` (stereo not drawn) reads above 51.2 µg/mL; that for `COc1ccc(F)cc1S(=O)(=O)NCCN1CCOCC1`, above 47.8 µg/mL; that for `O=C(O)C1CC=CCC1C(=O)Nc1cccc([N+](=O)[O-])c1` (stereo not drawn), above 43.5 µg/mL. For `Cc1cccc(NC(=O)c2cc3c(s2)-c2c(C)cccc2OC3)n1`, the solubility (kinetic) is below 0.4 µg/mL.

For the compound `CC(C)(C)C(=O)NC1CC2CCCC(C1)N2C(=O)Nc1ccccc1` (stereo not drawn), the solubility (kinetic) is 12.8 µg/mL (≈ 37.3 µM).

Compound `O=S(=O)(c1ccc(Cl)c2ccccc12)N1CCCC1` displayed a solubility (kinetic) below 0.6 µg/mL. Under `CCC(C)c1ccc(C(CC)NC(=O)C2CCCO2)cc1` (stereo not drawn) stands 34.5 µg/mL (≈ 119 µM); under `Cc1ccccc1C(=O)NCC(=O)c1ccccc1`, above 38 µg/mL; under `CC(=O)Cc1nsc(Nc2ccc(F)cc2)n1`, 33.2 µg/mL (≈ 132 µM). Under `CC(C)c1ccc(-n2ccnc2SCC(=O)O)cc1` stands above 41.5 µg/mL; under `COc1ccccc1NC(=S)N(C(C)C)C(C)c1ccccn1` (stereo not drawn), 37.8 µg/mL (≈ 115 µM); under `NC(=O)c1ccccc1OCC(=O)N1CCc2ccccc2C1`, above 46.6 µg/mL.

Compound `COc1cccc(OC)c1OCC(=O)Nc1ccc(S(=O)(=O)N2CCCC2)cc1` displayed a solubility (kinetic) of 2.6 µg/mL (≈ 6.18 µM). `CC(C)c1ccc(NC2CCCN(C(=O)c3cccnc3)C2)cc1` (stereo not drawn) yielded a kinetic solubility above 48.5 µg/mL. As for `COc1cccc(C(C)NC(=O)c2ccncc2)c1` (stereo not drawn), the solubility (kinetic) was above 38.4 µg/mL. Under `Cc1cc(C)cc(NC(=O)N2C3CCCC2CC(NC(=O)C2CC2)C3)c1` (stereo not drawn) stands 1.6 µg/mL (≈ 4.5 µM). The result for `O=[N+]([O-])c1ccccc1/C=C/c1ccc2ccccc2n1` reads below 0.3 µg/mL. The result for `CC(=O)Nc1ccccc1C(=O)C(=O)NCCc1ccccc1` reads 40.5 µg/mL (≈ 130 µM); that for `CCOc1ccc2[nH]c(C)c(CN3CCCCCC3)c(=O)c2c1`, above 47.2 µg/mL; that for `O=C(COc1ccc(Cl)cc1[N+](=O)[O-])N1CCCCC1`, above 44.8 µg/mL. In the case of `Cn1c(/C=C/c2ccccc2)nc2ccccc2c1=O`, the kinetic solubility worked out at 2.3 µg/mL (≈ 8.77 µM). `O=C(NNC(=O)c1ccccn1)c1ccc(OC(F)F)cc1` had a kinetic solubility above 46.1 µg/mL. As for `CC(=O)c1sc(NC(=O)COc2ccccc2)nc1C`, the solubility (kinetic) came to 5.7 µg/mL (≈ 19.6 µM). Under `Cc1ccc(C(OC(=O)c2ccco2)C(=O)NC(C)(C)C)cc1` (stereo not drawn) stands 17 µg/mL (≈ 53.9 µM); under `CC(C)(C)c1nnc(NS(=O)(=O)c2ccc([N+](=O)[O-])cc2)s1`, above 51.4 µg/mL.

These data come from PubChem BioAssay AID1996.
